Molecular target: T1, ReIDS2 (ReGGPS2) (Rhizobium etli, UniProt Q8KLD2)
T1 construct: gene RHE_PD00244; full-length ORF in pET101/D-TOPO, C-terminal 6xHis tag, E. coli BL21 Star
T1 sequence (Q8KLD2 1-309): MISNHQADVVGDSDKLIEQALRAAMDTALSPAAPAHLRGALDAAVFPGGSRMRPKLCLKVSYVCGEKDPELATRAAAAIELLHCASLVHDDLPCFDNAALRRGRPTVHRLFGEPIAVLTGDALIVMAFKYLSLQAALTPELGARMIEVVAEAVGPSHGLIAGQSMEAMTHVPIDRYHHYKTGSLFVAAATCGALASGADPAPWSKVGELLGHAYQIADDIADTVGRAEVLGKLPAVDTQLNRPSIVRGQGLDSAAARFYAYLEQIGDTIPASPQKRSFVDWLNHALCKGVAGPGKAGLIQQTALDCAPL
Test: LC-MS/MS detection of GGPP product
Assay type: biochemical
Settings: 50 uM IPP + 50 uM DMAPP; MOPSO pH 7.2, 10 mM MgCl2; 30 C, 2 h; main product GGPP

Which “LC-MS/MS detection of GGPP product” value does the source give for `CC(C)=CCOP(=O)(O)OP(=O)(O)O` [DMAPP] here?
Its value is “produced GGPP as its major product from the universal isoprenoid precursors IPP and DMAPP”.
